Measurements: patent publication US10047080B2, “(R)-2-methyl-piperazine derivatives as CXCR3 receptor modulators” (Idorsia Pharmaceuticals Ltd., priority 2015, dated 2018)

Tests used:
Format in all cases: cell-based
[1] = molecular target: hERG K channel (Homo sapiens (Human), UniProt Q12809); experiment: hERG Q-Patch assay; details: CHO cells expressing hERG, K+ tail current
Description: Compounds are evaluated for block of the hERG K channel using CHO cells stably expressing the hERG gene (accession number U04270, bSys, Witterswil, Switzerland) and the QPatch robotic platform (Sophion, Ballerup, Denmark) in single-cell mode at room temperature. Cells are grown in culture flasks at 37° C. in 5% CO2, in culture medium (Ham's F-12 Nutrient Mixture, Invitrogen 21765-029) supplemented with 9% (v/v) fetal calf serum, 0.9% Penicillin/Streptomycin (10,000 U/mL, Invitrogen 15140148), 100 μg/mL Hygromycin B (Invitrogen 10687010). When the cells are ˜80% confluent (every 2-3 days), they are either split for further culture or used for electrophysiology. For further culture, cells are detached with 0.25% Trypsin EDTA solution (Invitrogen 25200-056) and a fraction of the cells (10-30%) is reseeded in culture medium. For electrophysiology, on the experimental day, cells are detached with 0.25% Trypsin EDTA solution and all cells are suspended in suspension medium (293 SFM II, Invitrogen 11686-029) supplemented with 20 mM HEPES and 0.04 mg/mL Trypsin inhibitor. Cells are kept in suspension medium at 32-35° C. in the QPatch robot until use, at which time aliquots are transferred to the extracellular solution (in mM: NaCl 150; KCl 4; CaCl2 1.2; MgCl2 1; HEPES 10; pH 7.4 with NaOH) containing 0.3% v/v DMSO and applied to the test plates. K+ currents are measured with the patch-voltage-clamp technique in the whole-cell configuration with the internal solution (in mM: KCl, 140; NaCl, 10; MgCl2, 1; HEPES, 10; EGTA, 5; pH=7.2 with KOH). Currents are low-pass filtered using the internal Bessel filter of the QPatch robot with a cut-off frequency of 2 kHz and are digitized at 10 kHz. K^+ tail currents are produced from a holding voltage of −80 mV by a 500-ms depolarization to +20 mV followed by a 500-ms repolarization to −40 mV; tail current amplitudes are measured at the end of the repolarization to −40 mV. The pulse pattern is repeated every 10 sec during the experiment, baseline K^+ current is measured after 3 min in extracellular solution, test-solution containing compound is then applied, and K^+ current in presence of compound is measured 3 minutes after application to the cells. The respective test-solution is prepared by (1) dissolving the test-compound in pure DMSO, (2) diluting this DMSO solution in extracellular solution, and (3) adding further DMSO, such that the final test-solution has a concentration of either 300 nM or 3000 nM of the test-compound and contains 0.3% v/v DMSO. Compound effects are quantified as % block by dividing the current in presence of compound by the baseline current; two or three experiments are performed for each compound and the final value represents the mean of the results of each experiment.

[2] = molecular target: CXCR3 (Homo sapiens (Human), UniProt P49682); experiment: Receptor internalization assay (RIA) in human whole blood; details: final CXCL10 9 nM, CXCR3 surface expression on CD4 positive cells
Description: Stock solutions of test compounds are made up at a concentration of 10 mM in DMSO, and serially diluted in PBS containing 0.5% BSA to concentrations required for inhibition dose response curves. Diluted compounds are then mixed with an equal volume of CXCL10 (Peprotech) diluted in PBS. Anticoagulated venous human whole blood is added to the mixture, which is then incubated in a CO2 incubator at 37° C. to allow for ligand mediated receptor internalization (final CXCL10 concentration is 9 nM). After 30 min, the blood is mixed with fluorescently labeled CXCR3 and CD4 specific antibodies (Becton Dickinson) and incubated on ice for 10 minutes. Samples are then mixed with BD FACS Lysing Solution (Becton Dickinson) in order to eliminate red blood cells. After washing the cells with PBS containing 0.5% BSA, the samples are then analyzed in a flow cytometer (FACS Canto II, Becton Dickinson). For data analysis using FACSDiva software (Becton Dickinson), the mean fluorescence corresponding to CXCR3 cell surface expression was determined on CD4 positive cells.
(§1) The calculated IC50 values may fluctuate depending on the daily assay performance. Fluctuations of this kind are known to those skilled in the art. In the case where IC50 values have been determined several times for the same compound, mean values are given. Data for the FLIPR assay are shown in Table 1 and for the receptor internalization assay (RIA) in Table 2.

[3] = molecular target: human CXCR3A (Homo sapiens (Human), UniProt P49682); experiment: FLIPR assay (calcium flux, CXCL10-induced); details: CHO-K1 cells expressing human CXCR3A coupled to Galpha(16); CXCL10 agonist at 20 nM
Description: The bioactivity of compounds is tested in a fluorometric imaging plate reader (FLIPR: Molecular Devices) using engineered CHO-K1 cells expressing the human CXCR3A (GenBank: AY242128) coupled to a G protein (Galpha(16)). Cells are plated the day prior to bioassay in F12 medium supplemented with 10% FBS and G418 and hygromycin antibiotics to maintain recombinant selection. At the day of bioassay, cells are washed and dye loaded for one hour with Fluo-4-AM (Invitrogen) in Hanks Balanced Salt Solution (Invitrogen), buffered with 20 mM Hepes at pH 7.4 and sodium bicarbonate (0.038%), containing 5 mM probenecid. This buffer, but lacking the dye and containing probenecid at a concentration of 2.5 mM, is also used for washing steps (wash buffer); or lacking both dye and probenecid but supplemented with 0.1% BSA for compound dilution steps (dilution buffer). Cells are washed free of excess dye and 60 microliter of wash buffer is added. Stock solutions of test compounds are made up at a concentration of 10 mM in DMSO, and serially diluted in dilution buffer to concentrations required for inhibition dose response curves. After a 10 minute incubation period at 37° C., 10 microliters of each compound dilution are transferred from a compound plate to the plate containing the recombinant cells in the FLIPR instrument according to the manufacturer's instructions. Following basal readings, 10 microliter CXCL10 agonist at a concentration of 20 nM (from Peprotech) is added, again using the FLIPR instrument. Changes in fluorescence are monitored before and after addition of the test compounds. Emission peak values above base level after CXCL10 addition are exported after base line subtraction.
as §1

hERG K channel, sequence (Q12809 whole entry): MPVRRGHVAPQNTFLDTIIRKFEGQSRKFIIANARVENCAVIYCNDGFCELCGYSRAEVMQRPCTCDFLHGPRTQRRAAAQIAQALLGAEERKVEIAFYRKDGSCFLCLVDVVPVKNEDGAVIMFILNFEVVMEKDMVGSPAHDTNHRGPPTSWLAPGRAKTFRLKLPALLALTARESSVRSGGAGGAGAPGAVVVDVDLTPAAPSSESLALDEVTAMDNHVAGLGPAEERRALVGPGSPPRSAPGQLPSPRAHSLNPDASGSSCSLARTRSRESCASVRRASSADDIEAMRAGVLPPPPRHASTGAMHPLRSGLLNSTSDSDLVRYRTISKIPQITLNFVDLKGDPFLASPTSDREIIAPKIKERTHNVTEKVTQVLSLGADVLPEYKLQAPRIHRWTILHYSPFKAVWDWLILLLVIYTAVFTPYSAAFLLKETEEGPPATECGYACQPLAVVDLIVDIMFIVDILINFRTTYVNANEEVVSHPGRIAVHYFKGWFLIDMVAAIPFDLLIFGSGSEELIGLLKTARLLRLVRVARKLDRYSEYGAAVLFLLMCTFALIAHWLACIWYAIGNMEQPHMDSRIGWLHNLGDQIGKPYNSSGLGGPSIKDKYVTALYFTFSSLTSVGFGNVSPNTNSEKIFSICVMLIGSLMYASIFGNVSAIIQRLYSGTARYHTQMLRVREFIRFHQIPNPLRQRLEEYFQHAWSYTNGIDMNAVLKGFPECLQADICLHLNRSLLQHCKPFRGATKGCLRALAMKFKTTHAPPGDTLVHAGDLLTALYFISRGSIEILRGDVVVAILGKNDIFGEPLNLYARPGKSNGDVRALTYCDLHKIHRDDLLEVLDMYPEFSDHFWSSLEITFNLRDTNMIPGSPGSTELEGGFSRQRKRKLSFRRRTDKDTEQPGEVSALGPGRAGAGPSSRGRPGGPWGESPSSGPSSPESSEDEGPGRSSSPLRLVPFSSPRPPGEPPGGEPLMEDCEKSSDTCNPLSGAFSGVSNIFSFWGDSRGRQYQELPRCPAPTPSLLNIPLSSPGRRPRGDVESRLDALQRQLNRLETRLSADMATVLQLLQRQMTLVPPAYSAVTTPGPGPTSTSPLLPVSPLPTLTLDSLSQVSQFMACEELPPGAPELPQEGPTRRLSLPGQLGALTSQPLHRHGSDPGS
CXCR3, sequence (P49682 whole entry): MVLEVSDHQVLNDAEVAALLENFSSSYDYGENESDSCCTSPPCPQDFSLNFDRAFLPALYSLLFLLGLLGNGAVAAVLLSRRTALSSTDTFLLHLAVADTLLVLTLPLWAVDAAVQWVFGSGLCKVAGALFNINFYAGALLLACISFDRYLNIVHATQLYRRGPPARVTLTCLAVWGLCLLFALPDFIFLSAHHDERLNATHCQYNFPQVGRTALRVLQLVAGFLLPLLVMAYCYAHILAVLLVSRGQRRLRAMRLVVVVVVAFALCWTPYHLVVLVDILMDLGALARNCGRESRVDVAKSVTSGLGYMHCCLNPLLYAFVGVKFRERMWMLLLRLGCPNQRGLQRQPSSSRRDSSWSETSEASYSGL
human CXCR3A, sequence (P49682 whole entry): as above

Row | IC50 [2] [nM] | IC50 [3] [nM] | Compound | % block ([1]; concentration 300 nM) [%] | % block ([1]; concentration 3000 nM) [%]
1 | 299 | 2.3 | CCOc1ncc(-c2nc(C(F)(F)F)sc2N2CCN(C(=O)Cn3cnc(C(C)C)n3)[C@H](C)C2)cn1 [Example 1, 1-{(R)-4-[4-(2-Ethoxy-pyrimidin-5-yl)-2-trifluoromethyl-thiazol-5-yl]-2-methyl-piperazin-1-yl}-2-(3-isopropyl-[1,2,4]triazol-1-yl)-ethanone] | 6 | 20
2 | 235 | 1.6 | CCOc1ncc(-c2nc(C(F)(F)F)sc2N2CCN(C(=O)Cn3cnc(CC)n3)[C@H](C)C2)cn1 [Example 2, 1-{(R)-4-[4-(2-Ethoxy-pyrimidin-5-yl)-2-trifluoromethyl-thiazol-5-yl]-2-methyl-piperazin-1-yl}-2-(3-ethyl-[1,2,4]triazol-1-yl)-ethanone] | −2 | 4
3 | 552 | 1 | CCOc1ncc(-c2nc(C(F)(F)F)sc2N2CCN(C(=O)Cn3cnc(C(C)(C)C)n3)[C@H](C)C2)cn1 [Example 3, 2-(3-tert-Butyl-[1,2,4]triazol-1-yl)-1-{(R)-4-[4-(2-ethoxy-pyrimidin-5-yl)-2-trifluoromethyl-thiazol-5-yl]-2-methyl-piperazin-1-yl}-ethanone] | 10 | 20
4 | 950 | 13 | CCOc1ncc(-c2nc(C(F)(F)F)sc2N2CCN(C(=O)Cn3cnc(COC)n3)[C@H](C)C2)cn1 [Example 4, 1-{(R)-4-[4-(2-Ethoxy-pyrimidin-5-yl)-2-trifluoromethyl-thiazol-5-yl]-2-methyl-piperazin-1-yl}-2-(3-methoxymethyl-[1,2,4]triazol-1-yl)-ethanone] | 5 | 10
5 | 1710 | 12 | C[C@@H]1CN(c2sc(C(F)(F)F)nc2-c2cnc(C(F)(F)F)nc2)CCN1C(=O)Cn1cnc(C(N)=O)n1 [Example 5, 1-(2-{(R)-2-Methyl-4-[2-trifluoromethyl-4-(2-trifluoromethyl-pyrimidin-5-yl)-thiazol-5-yl]-piperazin-1-yl}-2-oxo-ethyl)-1H-[1,2,4]triazole-3-carboxylic acid amide] | 1 | 5
6 | 148 | 2 | CCc1ncn(CC(=O)N2CCN(c3sc(C(F)(F)F)nc3-c3cnc(C(F)(F)F)nc3)C[C@H]2C)n1 [Example 6, 2-(3-Ethyl-[1,2,4]triazol-1-yl)-1-{(R)-2-methyl-4-[2-trifluoromethyl-4-(2-trifluoromethyl-pyrimidin-5-yl)-thiazol-5-yl]-piperazin-1-yl}-ethanone] | 5 | 22
7 | 174 | 1.3 | CC(C)c1ncn(CC(=O)N2CCN(c3sc(C(F)(F)F)nc3-c3cnc(C(F)(F)F)nc3)C[C@H]2C)n1 [Example 7, 2-(3-Isopropyl-[1,2,4]triazol-1-yl)-1-{(R)-2-methyl-4-[2-trifluoromethyl-4-(2-trifluoromethyl-pyrimidin-5-yl)-thiazol-5-yl]-piperazin-1-yl}-ethanone] | 5 | 24
8 | 349 | 1.6 | C[C@@H]1CN(c2sc(C(F)(F)F)nc2-c2cnc(C(F)(F)F)nc2)CCN1C(=O)Cn1cnc(C(C)(C)C)n1 [Example 8, 2-(3-tert-Butyl-[1,2,4]triazol-1-yl)-1-{(R)-2-methyl-4-[2-trifluoromethyl-4-(2-trifluoromethyl-pyrimidin-5-yl)-thiazol-5-yl]-piperazin-1-yl}-ethanone] | 4 | 23
9 | 606 | 2.7 | COCc1ncn(CC(=O)N2CCN(c3sc(C(F)(F)F)nc3-c3cnc(C(F)(F)F)nc3)C[C@H]2C)n1 [Example 9, 2-(3-Methoxymethyl-[1,2,4]triazol-1-yl)-1-{(R)-2-methyl-4-[2-trifluoromethyl-4-(2-trifluoromethyl-pyrimidin-5-yl)-thiazol-5-yl]-piperazin-1-yl}-ethanone] | 2 | 11
10 | 809 | 5.2 | C[C@@H]1CN(c2sc(C(F)(F)F)nc2-c2cnc(C(F)(F)F)nc2)CCN1C(=O)Cn1cnc(CO)n1 [Example 10, 2-(3-Hydroxymethyl-[1,2,4]triazol-1-yl)-1-{(R)-2-methyl-4-[2-trifluoromethyl-4-(2-trifluoromethyl-pyrimidin-5-yl)-thiazol-5-yl]-piperazin-1-yl}-ethanone] | 6 | 17
11 | 221 | 4.4 | CCCc1ncn(CC(=O)N2CCN(c3sc(C(F)(F)F)nc3-c3cnc(C(F)(F)F)nc3)C[C@H]2C)n1 [Example 11, 1-{(R)-2-Methyl-4-[2-trifluoromethyl-4-(2-trifluoromethyl-pyrimidin-5-yl)-thiazol-5-yl]-piperazin-1-yl}-2-(3-propyl-[1,2,4]triazol-1-yl)-ethanone] | 5 | 30
12 | 564 | 0.9 | CC(O)c1ncn(CC(=O)N2CCN(c3sc(C(F)(F)F)nc3-c3cnc(C(F)(F)F)nc3)C[C@H]2C)n1 (stereo partly drawn) [Example 12, 2-[3-(1-Hydroxy-ethyl)-[1,2,4]triazol-1-yl]-1-{(R)-2-methyl-4-[2-trifluoromethyl-4-(2-trifluoromethyl-pyrimidin-5-yl)-thiazol-5-yl]-piperazin-1-yl}-ethanone] | 0 | 4
13 | 830 | 3.2 | C[C@@H]1CN(c2sc(C(F)(F)F)nc2-c2cnc(C(F)(F)F)nc2)CCN1C(=O)Cn1cnc(C(C)(C)O)n1 [Example 13, 2-[3-(1-Hydroxy-1-methyl-ethyl)-[1,2,4]triazol-1-yl]-1-{(R)-2-methyl-4-[2-trifluoromethyl-4-(2-trifluoromethyl-pyrimidin-5-yl)-thiazol-5-yl]-piperazin-1-yl}-ethanone] | 10 | 21
